IC50 data for two molecules are collected here from PMC3079261 (Tetrahedron letters, 2011).

The target of this experiment is FGFR1 kinase domain (Homo sapiens, UniProt P11362). The experiment is described as follows: ALPHAScreen assay of inhibition of phosphorylation by FGFR1 kinase. The class given is biochemical. (In Alpha technology, singlet oxygen from a donor bead excites a nearby acceptor bead.)

Molecules are shown by their SMILES.

Chain of FGFR1 kinase domain (P11362 478-767 limits assumed): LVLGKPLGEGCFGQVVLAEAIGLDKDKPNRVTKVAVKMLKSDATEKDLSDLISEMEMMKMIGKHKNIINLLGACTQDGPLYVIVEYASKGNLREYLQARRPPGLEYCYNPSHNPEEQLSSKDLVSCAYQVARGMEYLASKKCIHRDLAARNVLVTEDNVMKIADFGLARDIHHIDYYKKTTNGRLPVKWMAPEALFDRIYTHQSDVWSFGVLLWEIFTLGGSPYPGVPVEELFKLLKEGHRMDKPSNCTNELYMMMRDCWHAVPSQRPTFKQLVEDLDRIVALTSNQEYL

Broadly, the IC50 is the concentration at which inhibition is half-maximal. High values mean lower potency, low ones higher potency. Molecule `COc1cc(OC)cc(-c2ccc3c(c2)sc2nc(CCC(=O)O)[nH]c(=O)c23)c1` [compound 7, 3-(7-(3,5-dimethoxyphenyl)-4-oxo-3,4-dihydrobenzo[4,5]thieno[2,3-d]pyrimidin-2-yl)propanoic acid] had an IC50 of 21 µM.

`COc1cc(OC)cc(-c2ccc3c(c2)sc2nc(-c4ccc(OCC(=O)O)c(OC)c4)[nH]c(=O)c23)c1` [compound 6, 2-(4-(7-(3,5-dimethoxyphenyl)-4-oxo-3,4-dihydrobenzo[4,5]thieno[2,3-d]pyrimidin-2-yl)-2-methoxyphenoxy)acetic acid]: the 50% inhibitory concentration (IC50) was determined as 28 µM.
